Structures can show the parent of a compound that is named as a salt.
Experiments:
[1] = tested on: interferon regulatory factor (IRF) pathway in THP-1 dual cells; assay: THP-1 Dual reporter assay, IRF pathway (luciferase); format: cell-based; details: Homo sapiens, THP1-Dual, 18 h stimulation, luminescence
Experimental: (§1) THP-1 Dual Reporter Assay
(§2) Compounds of the present invention were tested for their activity using THP-1 dual cells (Invivogen, cat no. thpd-nfis) allowing for simultaneous study of NF-κB pathway and the interferon regulatory factor (IRF) pathway. THP-1 dual cells contain luciferase reporter gene under the control of an ISG54 (interferon-stimulated gene) minimal promoter in conjunction with five interferon-stimulated response elements and a secreted embryonic alkaline phosphatase reporter gene under the control an IFN (interferon)-β minimal promoter fused to five copies of the NF-κB consensus transcriptional response element with three copies of the c-Rel binding site. Following 18 h of stimulation with STING agonist, medium was collected and transferred onto fresh cell culture plate. To verify activity of the IRF pathway, luminescence activity was measured with standard laboratory plate reader immediately after addition 10 μl of the medium to 40 or 50 μl of luminescence reagent (Invivogen, cat. No. rep-qlc2). To verify activity of NF-κB pathway, 10 or 20 μl of the medium was mixed with 80 μl of a detection medium (Invivogen, cat. No. rep-qb2) and incubated for 1 or 2 hours at 37° C. in a humidified atmosphere containing 5% CO2. Next, absorbance at 630 or 655 nm was recorded using standard laboratory plate reader.

[2] = tested on: NF-κB pathway in THP-1 dual cells; assay: THP-1 Dual reporter assay, NF-κB pathway (SEAP); format: cell-based; details: Homo sapiens, THP1-Dual, 18 h stimulation, absorbance at 630 or 655 nm, read-out: THP1 Dual EC50 (μM) NFkB
Experimental: as §1, §2

human STING = human STING (Homo sapiens, UniProt Q86WV6); assay: Fluorescence Thermal Shift assay (hSTING FTS binding assay); details: ΔTm, STING 0.1 mg/mL, SyproOrange, 25 to 99° C.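 Further: STING preincubated with compound for 20 min in HEPES NaCl buffer pH 7.5.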
human STING, sequence (Q86WV6 whole entry H232R): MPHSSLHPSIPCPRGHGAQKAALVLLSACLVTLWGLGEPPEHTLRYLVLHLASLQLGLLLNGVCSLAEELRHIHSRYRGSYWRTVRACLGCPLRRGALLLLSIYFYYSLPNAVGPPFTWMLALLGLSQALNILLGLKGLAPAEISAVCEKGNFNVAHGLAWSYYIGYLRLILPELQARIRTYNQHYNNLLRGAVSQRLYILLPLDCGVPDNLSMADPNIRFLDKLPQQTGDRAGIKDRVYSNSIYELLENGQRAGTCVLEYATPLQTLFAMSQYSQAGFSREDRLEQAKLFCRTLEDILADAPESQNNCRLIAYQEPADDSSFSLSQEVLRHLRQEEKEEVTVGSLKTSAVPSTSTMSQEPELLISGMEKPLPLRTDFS
Experimental: Fluorescence Thermal Shift Assay Compounds of the present invention were tested for binding to human STING in Fluorescence Thermal Shift assay. […] Final STING concentration was 0.1 mg/mL. Thermal unfolding was performed in Real-Time PCR QuantStudio 6 Flex System (Applied Biosystems), from 25 to 99° C., with continuous ramp mode and ramp rate 0.033° C./s. The data were analyzed using Protein Thermal Shift Software (ThermoFisher).

**Q.** Which EC50 [1] does the source give for `Cc1ccc(N2CCC[C@H](N(Cc3ccnc(C)c3)Cc3cn(C4CC4)c4cc(-n5cc(CO)nn5)c(F)cc4c3=O)C2)cn1` [Example 61, 1-Cyclopropyl-6-fluoro-7-[4-(hydroxymethyl)-1H-1,2,3-triazol-1-yl]-3-({[(3S)-1-(6-methylpyridin-3-yl)piperidin-3-yl][(2-methylpyridin-4-yl)methyl]amino}methyl)-1,4-dihydroquinolin-4-one] here?
**A.** The EC50 was ≤ 1 µM.

**Q.** And the EC50 [2]?
**A.** Its EC50 is ≤ 1 µM.

**Q.** For `Cc1ccc(N2CCC[C@H](N(Cc3ccnc(C)c3)Cc3cn(C4CC4)c4cc(CN)c(F)cc4c3=O)C2)cn1` [Example 80, 7-(aminomethyl)-1-cyclopropyl-6-fluoro-3-({[(3S)-1-(6-methylpyridin-3-yl)piperidin-3-yl][(2-methylpyridin-4-yl)methyl]amino}methyl)-1,4-dihydroquinolin-4-one], which EC50 [1] is on record?
**A.** Its EC50 is ≤ 1 µM.

**Q.** What about the EC50 [2] of the same compound?
**A.** Its EC50 is ≤ 1 µM.

**Q.** How did the EC50 [1] turn out when `Cc1ccc(N2CCC[C@H](N(Cc3ccnc(C)c3)Cc3cn(C4CC4)c4nc(N)c(F)cc4c3=O)C2)cn1` [Example 36, 7-amino-1-cyclopropyl-6-fluoro-3-({[(3S)-1-(6-methylpyridin-3-yl)piperidin-3-yl][(2-methylpyridin-4-yl)methyl]amino}methyl)-1,4-dihydro-1,8-naphthyridin-4-one] was run?
**A.** The EC50 was ≤ 1 µM.

**Q.** What about the EC50 [2] of the same compound?
**A.** Its EC50 is ≤ 1 µM.

**Q.** Which “hSTING FTS binding assay (ΔT ° C.)” value (human STING) does the source give for `Cc1ccc(N2CCC[C@H](N(Cc3ccnc(C)c3)Cc3cn(C4CC4)c4cc(OCCO)c(F)cc4c3=O)C2)cn1` [Example 47, 1-Cyclopropyl-6-fluoro-7-(2-hydroxyethoxy)-3-({[(3S)-1-(6-methylpyridin-3-yl)piperidin-3-yl][(2-methylpyridin-4-yl)methyl]amino}methyl)-1,4-dihydroquinolin-4-one] here?
**A.** Its value is “+++ (ΔTm≥20° C.)”.

**Q.** What about the EC50 [1] of the same compound?
**A.** Its EC50 is ≤ 1 µM.

**Q.** And the EC50 [2]?
**A.** Its EC50 is ≤ 1 µM.

**Q.** How did the EC50 [1] turn out when `Cc1ccc(N2CCC[C@H](N(Cc3ccnc(C)c3)Cc3cn(C)c4cc(N5CC[C@H](N)C(F)(F)C5)ccc4c3=O)C2)cn1` (single isomer, unassigned) [Example 51] was run?
**A.** Its EC50 is ≤ 1 µM.

**Q.** What about the EC50 [2] of the same compound?
**A.** The EC50 was 1 to 10 µM.

**Q.** Which results are given for `Cc1cc(CN(Cc2cn(C)c3cc(N4CCC(C(=O)O)CC4)ccc3c2=O)[C@H]2CCCN(c3cccnc3)C2)ccn1` [Example 46, 1-[1-methyl-3-({[(2-methylpyridin-4-yl)methyl][(3S)-1-(pyridin-3-yl)piperidin-3-yl]amino}methyl)-4-oxo-1,4-dihydroquinolin-7-yl]piperidine-4-carboxylic Acid]?
**A.** hSTING FTS binding assay (ΔT ° C.) (human STING): ++ (10<ΔTm<20° C.); EC50 [1]: ≥ 10 µM; EC50 [2]: ≥ 10 µM

**Q.** How did the EC50 [1] turn out when `Cc1cc(CN(Cc2cn(C3CC3)c3cc(OCCO)c(F)cc3c2=O)[C@H]2CCCN(c3cccnc3)C2)ccn1` [Example 84, 1-cyclopropyl-6-fluoro-7-(2-hydroxyethoxy)-3-({[(2-methylpyridin-4-yl)methyl][(3S)-1-(pyridin-3-yl)piperidin-3-yl]amino}methyl)-1,4-dihydroquinolin-4-one Hydrochloride] was run?
**A.** The EC50 was ≤ 1 µM.

**Q.** What about the EC50 [2] of the same compound?
**A.** Its EC50 is ≤ 1 µM.

**Q.** What does the source list for `Cc1ccc(N2CCC[C@H](N(Cc3ccnc(C)c3)Cc3cn(CCN)c4ccccc4c3=O)C2)cn1` [Example 18, 1-(2-Aminoethyl)-3-({[(3S)-1-(6-methylpyridin-3-yl)piperidin-3-yl][(2-methylpyridin-4-yl)methyl]amino}methyl)-1,4-dihydroquinolin-4-one]?
**A.** hSTING FTS binding assay (ΔT ° C.) (human STING): + (ΔTm≤10° C.); EC50 [1]: 1 to 10 µM; EC50 [2]: 1 to 10 µM

**Q.** How did the EC50 [1] turn out when `Cc1cc(CN(Cc2cn(C)c3ccccc3c2=O)[C@H]2CCCN(c3cncc(CO)c3)C2)ccn1` [Example 44, 3-({[(3S)-1-[5-(hydroxymethyl)pyridin-3-yl]piperidin-3-yl][(2-methylpyridin-4-yl)methyl]amino}methyl)-1-methyl-1,4-dihydroquinolin-4-one] was run?
**A.** Its EC50 is ≥ 10 µM.

**Q.** What about the EC50 [2] of the same compound?
**A.** Its EC50 is ≥ 10 µM.

**Q.** What does the source list for `Cc1cc(CN(Cc2cn(C)c3ccccc3c2=O)[C@H]2CCCN(c3ccc(CCO)nc3)C2)ccn1` [Example 43, 3-({[(3S)-1-[6-(2-hydroxyethyl)pyridin-3-yl]piperidin-3-yl][(2-methylpyridin-4-yl)methyl]amino}methyl)-1-methyl-1,4-dihydroquinolin-4-one]?
**A.** EC50 [1]: 1 to 10 µM; EC50 [2]: 1 to 10 µM

**Q.** With `Cc1cc(CN(Cc2cn(C3CC3)c3cc(OCCO)c(F)cc3c2=O)[C@H]2CCCN(c3ccc(Cl)nc3)C2)ccn1` [Example 97, 3-({[(3S)-1-(6-chloropyridin-3-yl)piperidin-3-yl][(2-methylpyridin-4-yl)methyl]amino}methyl)-1-cyclopropyl-6-fluoro-7-(2-hydroxyethoxy)-1,4-dihydroquinolin-4-one Hydrochloride] as the compound, how does the EC50 [1] read?
**A.** Its EC50 is ≤ 1 µM.

**Q.** What about the EC50 [2] of the same compound?
**A.** The EC50 was ≤ 1 µM.

**Q.** For `Cc1ccc(N2CCC[C@H](N(Cc3ccnc(C)c3)Cc3cn(C4CC4)c4cc(NC(=O)CN)c(F)cc4c3=O)C2)cn1` [Example 25, 2-amino-N-[1-cyclopropyl-6-fluoro-3-({[(3S)-1-(6-methylpyridin-3-yl)piperidin-3-yl][(2-methylpyridin-4-yl)methyl]amino}methyl)-4-oxo-1,4-dihydroquinolin-7-yl]acetamide], which “hSTING FTS binding assay (ΔT ° C.)” value (human STING) is on record?
**A.** The value was “+++ (ΔTm≥20° C.)”.

**Q.** And the EC50 [1]?
**A.** The EC50 was ≤ 1 µM.

**Q.** What about the EC50 [2] of the same compound?
**A.** Its EC50 is ≤ 1 µM.

**Q.** Which results are given for `Cc1cc(CN(Cc2cn(C(C)C)c3cc(F)c(F)cc3c2=O)[C@H]2CCCN(c3ccc(N)nc3)C2)ccn1.Cl` [Example 24, 3-({[(3S)-1-(6-aminopyridin-3-yl)piperidin-3-yl][(2-methylpyridin-4-yl)methyl]amino}methyl)-6,7-difluoro-1-(propan-2-yl)-1,4-dihydroquinolin-4-one Hydrochloride]?
**A.** hSTING FTS binding assay (ΔT ° C.) (human STING): +++ (ΔTm≥20° C.); EC50 [1]: ≤ 1 µM; EC50 [2]: ≤ 1 µM

**Q.** Which EC50 [1] does the source give for `Cc1ccc(N2CCC[C@H](N(Cc3ccnc(C)c3)Cc3cn(C4CC4)c4cc(-n5cc(C(N)=O)nn5)c(F)cc4c3=O)C2)cn1` [Example 60, 1-[1-Cyclopropyl-6-fluoro-3-({[(3S)-1-(6-methylpyridin-3-yl)piperidin-3-yl][(2-methylpyridin-4-yl)methyl]amino}methyl)-4-oxo-1,4-dihydroquinolin-7-yl]-1H-1,2,3-triazole-4-carboxamide] here?
**A.** The EC50 was ≤ 1 µM.

**Q.** What about the EC50 [2] of the same compound?
**A.** Its EC50 is ≤ 1 µM.

**Q.** `Cc1cc(CN(Cc2cn(C3CC3)c3cc(OCCO)c(F)cc3c2=O)[C@H]2CCCN(c3cnccn3)C2)ccn1.Cl` [Example 85, 1-cyclopropyl-6-fluoro-7-(2-hydroxyethoxy)-3-({[(2-methylpyridin-4-yl)methyl][(3S)-1-(pyrazin-2-yl)piperidin-3-yl]amino}methyl)-1,4-dihydroquinolin-4-one Hydrochloride] was tested. Which “hSTING FTS binding assay (ΔT ° C.)” value (human STING) did it give?
**A.** The value was “++ (10<ΔTm<20° C.)”.

**Q.** What about the EC50 [1] of the same compound?
**A.** The EC50 was ≤ 1 µM.

**Q.** And the EC50 [2]?
**A.** The EC50 was ≤ 1 µM.

**Q.** Which results are given for `Cc1ccc(N2CCC[C@H](N(Cc3ccnc(C)c3)Cc3cn(C)c4c(OCCO)cccc4c3=O)C2)cn1` [Example 63, 8-(2-hydroxyethoxy)-1-methyl-3-({[(3S)-1-(6-methylpyridin-3-yl)piperidin-3-yl][(2-methylpyridin-4-yl)methyl]amino}methyl)-1,4-dihydroquinolin-4-one]?
**A.** EC50 [1]: ≤ 1 µM; EC50 [2]: ≤ 1 µM

**Q.** Which EC50 [1] does the source give for `COc1cc(CN(Cc2cn(C3CC3)c3cc(N4CC[C@@H](O)C4)c(F)cc3c2=O)[C@H]2CCCN(c3cccnc3)C2)ccn1` [Example 65, 1-cyclopropyl-6-fluoro-7-[(3R)-3-hydroxypyrrolidin-1-yl]-3-({[(2-methoxypyridin-4-yl)methyl][(3S)-1-(pyridin-3-yl)piperidin-3-yl]amino}methyl)-1,4-dihydroquinolin-4-one Hydrochloride] here?
**A.** Its EC50 is ≤ 1 µM.

**Q.** And the EC50 [2]?
**A.** Its EC50 is ≤ 1 µM.

**Q.** For `Cc1ccc(N2CCC[C@H](N(Cc3ccnc(C)c3)Cc3cn(C4CC4)c4cc(N5CC[C@@H](O)C5)ccc4c3=O)C2)cn1` [Example 45, 1-cyclopropyl-7-[(3R)-3-hydroxypyrrolidin-1-yl]-3-({[(3S)-1-(6-methylpyridin-3-yl)piperidin-3-yl][(2-methylpyridin-4-yl)methyl]amino}methyl)-1,4-dihydroquinolin-4-one], which “hSTING FTS binding assay (ΔT ° C.)” value (human STING) is on record?
**A.** The value was “+++ (ΔTm≥20° C.)”.

**Q.** And the EC50 [1]?
**A.** The EC50 was ≤ 1 µM.

**Q.** What about the EC50 [2] of the same compound?
**A.** Its EC50 is ≤ 1 µM.

Source: patent US12655124B2, “Heterocyclic compounds as modulators of stimulator of interferon genes (STING)” (RYVU THERAPEUTICS S.A., priority 2019, dated 2026)
